# Assay results: ChEMBL document CHEMBL5331054, “Antibacterial quaternary ammonium agents: Chemical diversity and biological mechanism” (Eur J Med Chem, 2022)
# Columns and labels:
# Staphylococcus aureus [1] = experiment: Antibacterial activity against Staphylococcus aureus assessed as log reduction in bacterial load measured after 5 mins; format: functional
# Escherichia coli [2] = experiment: Antibacterial activity against Escherichia coli assessed as log reduction in bacterial load measured after 5 mins; format: functional
# Staphylococcus aureus [3] = experiment: Antibacterial activity against Staphylococcus aureus NBRC 12732 assessed as reduction in bacterial growth by CLSI based broth microdilution method; format: functional
# Escherichia coli [4] = experiment: Antibacterial activity against Escherichia coli ATCC 25922 assessed as reduction in bacterial growth incubated for 24 hrs by micro-dilution method; format: functional
# Staphylococcus aureus [5] = experiment: Antibacterial activity against methicillin-sensitive Staphylococcus aureus assessed as reduction microbial growth; format: functional
# Staphylococcus aureus [6] = experiment: Antibacterial activity against Staphylococcus aureus ATCC 700699 assessed as reduction in bacterial growth inhibition incubated for 24 hrs by microbroth-dilution method; format: functional
# Staphylococcus aureus [7] = experiment: Antibiofilm activity against methicillin-resistant Staphylococcus aureus SH1000 assessed as reduction in bacterial growth; format: functional
# Staphylococcus aureus [8] = experiment: Antimicrobial activity against community acquired methicillin-resistant Staphylococcus aureus SH1000; format: functional
# Staphylococcus aureus [9] = experiment: Antibacterial activity against methicillin-resistant Staphylococcus aureus assessed as bacterial growth inhibition; format: functional
# Acinetobacter baumannii = experiment: Antibacterial activity against Acinetobacter baumannii assessed as inhibition of bacterial cell growth; format: functional
# Escherichia coli [10] = experiment: Antibacterial activity against Escherichia coli assessed as reduction bacterial cell growth; format: functional
# Pseudomonas aeruginosa [11] = experiment: Antibacterial activity against Pseudomonas aeruginosa assessed as inhibition of bacterial cell growth; format: functional
# Klebsiella pneumoniae = experiment: Antibacterial activity against Klebsiella pneumoniae assessed as reduction in bacterial growth; format: functional
# Staphylococcus aureus [12] = experiment: Antibacterial activity against Staphylococcus aureus assessed as reduction in bacterial growth inhibition measured after 18 to 24 hrs by micro-broth dilution method; format: functional; details: time 18-24 hrs
# Escherichia coli [13] = experiment: Antibacterial activity against Escherichia coli assessed as bacterial growth inhibition incubated for 72 hrs by microdilution method; format: functional
# Pseudomonas aeruginosa [14] = experiment: Antibacterial activity against Pseudomonas aeruginosa assessed as bacterial growth inhibition incubated for 72 hrs by microdilution method; format: functional
# Staphylococcus aureus [15] = experiment: Antibacterial activity against Staphylococcus aureus assessed as bacterial growth inhibition incubated for 72 hrs by microdilution assay; format: functional, organism-based; details: for MIC: Staphylococcus aureus, time 72 hrs
# Staphylococcus aureus [16] = experiment: Antibacterial activity against methicillin-resistant Staphylococcus aureus assessed as log reduction in bacterial load measured after 60 mins; format: functional; details: 1 h
# Enterococcus faecalis [17] = experiment: Antibiofilm activity against Enterococcus faecalis assessed as reduction in bacterial growth by crystal violet based staining assay; format: functional
# Staphylococcus aureus [18] = experiment: Antibiofilm activity against Staphylococcus aureus assessed as reduction in bacterial growth by crystal violet based staining assay; format: functional
# Escherichia coli [19] = experiment: Antibiofilm activity against Escherichia coli assessed as reduction in bacterial growth by crystal violet based staining assay; format: functional
# Pseudomonas aeruginosa [20] = experiment: Antibiofilm activity against Pseudomonas aeruginosa assessed as reduction in bacterial growth by crystal violet based staining assay; format: functional
# [21] = tested on: Stenotrophomonas maltophilia; experiment: Antibacterial activity against Stenotrophomonas maltophilia assessed as inhibition of bacterial growth; format: functional
# Enterococcus faecalis [22] = experiment: Antibacterial activity against Enterococcus faecalis assessed as reduction in bacterial cell growth; format: functional
# Staphylococcus aureus [23] = experiment: Antimicrobial activity against Staphylococcus aureus assessed as reduction in bacterial growth; format: functional
# Staphylococcus aureus [24] = experiment: Antibacterial activity against Staphylococcus aureus ATCC 25923 assessed as bacterial growth inhibition incubated for 24 hrs by microdilution method; format: functional
# Bacillus cereus = experiment: Antibacterial activity against Bacillus cereus assessed as reduction in microbial growth after 18 hrs by MTT based broth dilution method; format: functional
# [25] = tested on: Staphylococcus epidermidis; experiment: Antibacterial activity against Staphylococcus epidermidis ATCC 12228 assessed as bacterial growth inhibition incubated for 24 hrs by microdilution method; format: functional
# Pseudomonas aeruginosa [26] = experiment: Antibacterial activity against Pseudomonas aeruginosa ATCC 9027 assessed as reduction in bacterial growth incubated for 24 hrs by micro-dilution method; format: functional
# Staphylococcus aureus [27] = experiment: Antibacterial activity against Staphylococcus aureus ATCC 25923 assessed as reduction in bacterial growth incubated for 24 hrs by micro-dilution method; format: functional
# Staphylococcus aureus [28] = experiment: Antibacterial activity against Staphylococcus aureus ATCC 4163 assessed as reduction in bacterial growth incubated for 24 hrs by micro-dilution method; format: functional
# Pseudomonas aeruginosa [29] = experiment: Antibacterial activity against Pseudomonas aeruginosa NCTC 6749 assessed as reduction in bacterial growth incubated for 24 hrs by micro-dilution method; format: functional
# Vibrio parahaemolyticus = experiment: Antibacterial activity against Vibrio parahaemolyticus ATCC 17802 assessed as reduction in bacterial growth incubated for 24 hrs by micro-dilution method; format: functional
# Staphylococcus aureus [30] = experiment: Antibacterial activity against Staphylococcus aureus […] assessed as reduction in bacterial growth inhibition measured after 24 hrs; format: functional
# Enterococcus faecalis [31] = experiment: Antibacterial activity against Enterococcus faecalis assessed as bacterial growth inhibition incubated for 72 hrs by microdilution method; format: functional
# Streptococcus pyogenes = experiment: Antibacterial activity against Streptococcus pyogenes ATCC 19615 assessed as reduction in bacterial growth incubated for 18 hrs by micro-broth dilution assay; format: functional
# Staphylococcus aureus [32] = experiment: Antibacterial activity against methicillin- resistant Staphylococcus aureus assessed as bacterial growth inhibition incubated for 24 hrs; format: functional
# [33] = Escherichia coli, 72 h, read-out: MIC
# [34] = Pseudomonas aeruginosa, 72 h, read-out: MIC
smiles,measurement,setting,value
CC1(C)C(=O)N(CCCCCCCCCCCC[n+]2ccccc2)C(=O)N1Cl.[Cl-],log(activity),Staphylococcus aureus [1],6.62
same,log(activity),Escherichia coli [2],2.16
C[N+](CCO)(CCO)CCCCCCCCCCCCSc1nnc(-c2ccccc2)o1.[Br-],MIC,Staphylococcus aureus [3],6.25 µg/mL
CC1(C)[C@@H]2CC[C@H](CC[N+](C)(C)CC[C@H]3CC[C@@H]4C[C@H]3C4(C)C)[C@H]1C2.[I-],MIC,Escherichia coli [4],5 µg/mL
CCCCCCCCCCCC[N+](C)(C)CCC[N+](C)(C)CCC[N+](C)(C)CCCCCCCCCCCC,MIC,Staphylococcus aureus [5],0.5 µM
CCCCCCCCCCCCCCCCCC[N+](C)(C)Cc1cnc(C)c(OC(C)=O)c1C.[Cl-],MIC,Staphylococcus aureus [6],1 µg/mL
C=CC[N+](CCC[N+](C)(C)CCCCCCCCCC)(CCC[N+](C)(C)CCCCCCCCCC)CCC[N+](C)(C)CCCCCCCCCC.[Br-].[Br-].[Br-].[Br-],MBEC,Staphylococcus aureus [7],25 µM
same,MIC,Staphylococcus aureus [8],0.25 µM
CCCCCCCCCCC[n+]1cccc(Oc2cccc(Oc3ccc[n+](CCCCCCCCCCC)c3)c2)c1.[Br-].[Br-],MIC,Staphylococcus aureus [9],< 0.25 µg/mL
same,MIC,Acinetobacter baumannii,< 0.25 µg/mL
same,MIC,Escherichia coli [10],< 0.25 µg/mL
same,MIC,Pseudomonas aeruginosa [11],< 0.25 µg/mL
same,MIC,Klebsiella pneumoniae,< 0.25 µg/mL
C[N+](C)(C)CCNC(=O)[C@H](Cc1c[nH]c2ccccc12)NC(=O)c1cc(Cl)ccc1NC(=O)c1ccc2ccccc2c1,MIC,Staphylococcus aureus [12],15.6 µM
CCCCCCCCCCCCCCCC[N+](C)(C)c1ccc(C(c2ccccc2)c2ccc([N+](C)(C)C)cc2)cc1.[I-].[I-] (configuration not stated),MIC,Staphylococcus aureus [9],< 0.25 µg/mL
CCCCCCCCCCCCOC(=O)C[N+](C)(C)CCC[N+](C)(C)CC(=O)OCCCCCCCCCCCC.[Cl-].[Cl-],MIC,Escherichia coli [13],200 µM
same,MIC,Pseudomonas aeruginosa [14],40 µM
same,IC50,Staphylococcus aureus [15],120 µM
CC1(C)C(=O)N(CCC[N+](C)(C)CC[N+](C)(C)C)C(=O)N1Cl.[Cl-].[Cl-],log(activity),Staphylococcus aureus [16],2.36
CCCCCCCCCCCC[N+](C)(C)CC[N+](C)(C)CC[N+](C)(C)CCCCCCCCCCCC,MIC,Enterococcus faecalis [17],< 0.25 µM
same,MIC,Staphylococcus aureus [18],< 0.25 µM
same,MIC,Escherichia coli [19],0.5 µM
same,MIC,Pseudomonas aeruginosa [20],1 µM
CCCCCCCCCCCC[N+](C)(C)CCOc1ccc(OCC[N+](C)(C)CCCCCCCCCCCC)cc1.[Br-].[Br-],MIC,[21],2 µg/mL
same,MIC,Enterococcus faecalis [22],1 µg/mL
same,MIC,Staphylococcus aureus [23],1 µg/mL
CCCCCCCCCCCCCCOC(=O)[C@H](Cc1ccccc1)[N+](C)(CC)CC,MIC,Staphylococcus aureus [24],3.6 µM
same,MIC,Bacillus cereus,5.4 µM
same,MIC,[25],4.5 µM
CC1(C)[C@@H]2CC[C@H](CC[N+](C)(C)CC[C@H]3CC[C@@H]4C[C@H]3C4(C)C)[C@H]1C2.[Cl-],MIC,Escherichia coli [4],0.625 µg/mL
same,MIC,Pseudomonas aeruginosa [26],0.625 µg/mL
same,MIC,Staphylococcus aureus [27],0.625 µg/mL
CCCCCCCCCCCC[N+](C)(C)CCNC(=O)C12CC3CC(C1)CC(C(=O)NCC[N+](C)(C)CCCCCCCCCCCC)(C3)C2,MIC,Staphylococcus aureus [28],2.3 µM
same,MIC,Escherichia coli [4],9.4 µM
same,MIC,Pseudomonas aeruginosa [29],2.3 µM
same,MIC,Vibrio parahaemolyticus,0.1 µM
CCOC(=O)c1c[n+](C(C)C)c2cc3c(cc2c1Nc1ccc(OCc2ccccc2)cc1)OCO3,MIC,Staphylococcus aureus [30],3.12 µM
C[N+](C)(C)CC[N+](C)(C)C,MIC,Escherichia coli [13]; [33],> 500 µM
same,MIC,Pseudomonas aeruginosa [14]; [34],> 500 µM
same,MIC,Enterococcus faecalis [31],> 500 µM
same,MIC,Staphylococcus aureus [15],> 500 µM
CCCCCCCCCCC[n+]1cccc(Oc2ccc(Oc3ccc[n+](CCCCCCCCCCC)c3)cc2)c1.[Br-].[Br-],MIC,Staphylococcus aureus [9],< 0.25 µg/mL
CCCCCCCCCCCCCCC[n+]1ccn(Cc2ccccc2)c1.[Br-],MIC,Streptococcus pyogenes,0.03 µg/mL
CCCCCCCCCC[N+](C)(C)CCOc1ccc(OCC[N+](C)(C)CCCCCCCCCC)cc1.[Br-].[Br-],MIC,[21],0.5 µg/mL
same,MIC,Enterococcus faecalis [22],0.25 µg/mL
same,MIC,Staphylococcus aureus [23],0.5 µg/mL
CCCCCCCCCC[N+](C)(C)CCCCCCCCCC [DIDECYLDIMETHYLAMMONIUM CHLORIDE],MIC,Staphylococcus aureus [9],4 µM
same,MIC,Staphylococcus aureus [32],1 µM
C[N+](C)(C)CCCCC[N+](C)(C)C [PENTAMETHONIUM BROMIDE],MIC,Escherichia coli [13]; [33],> 500 µM
same,MIC,Pseudomonas aeruginosa [14]; [34],> 500 µM
same,MIC,Enterococcus faecalis [31],> 500 µM
same,MIC,Staphylococcus aureus [15],> 500 µM
